Data published in patent US20200270309A1, “MALEIMIDE GROUP-MODIFIED ANGIOGENESIS INHIBITOR HM-1 AND USE THEREOF” (NANJING ANJI BIOLOGICAL TECHNOLOGY CO., LTD, priority 2017, published 2020).
Marks after values point to notes of the source that are not given here. Peptide text beside a SMILES is read from it. * marks the point of attachment. X66 = O=C1C=CC(=O)N1c1cccc(CCCCCCCC(=O)*)c1; X55 = O=C1C=CC(=O)N1c1ccccc1CCCCCCCCC(=O)*; X75 = O=C1C=CC(=O)N1c1cccc(CC(=O)*)c1

Key:
splenic lymphocytes = experiment: Proliferation of splenic lymphocytes in mice (ConA, MTT); format: cell-based; conditions: ConA-stimulated mouse splenic lymphocytes, 48 h
How it was run: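 Mouse splenocytes (5×10^6 cells/mL, RPMI 1640 with 10% calf serum, red cells lysed) stimulated with ConA plus varying polypeptide concentrations, with blank, ConA-only and Dex groups, 48 h at 37° C. MTT added for 4 h, formazan dissolved in DMSO, OD read at 570 nm; five replicates.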

adjuvant arthritis = experiment: Rat adjuvant arthritis (AA) animal model; format: in vivo, SD rats; conditions: 4.0 mg/kg; for Clinical score: intravenous in the tail once every five days from day 10, four paws scored 0-4, max 16, mean±SD; for Joint swelling degree / Left and right paw swelling degree: intravenous in the tail once every five days from day 10, mean±SD
[1] = tested on: carrageenan-induced toe swelling; experiment: Carrageenan-induced toe swelling in rats; format: in vivo; conditions: SD rats; for Swelling degree 1 h: 1 h after carrageenan; for Swelling degree 3 h: 3 h after carrageenan; for Swelling degree 5 h: 5 h after carrageenan; for Swelling degree 7 h: 7 h after carrageenan
How it was run: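 Rats dosed by injection once daily for 3 d, controls given equal-volume saline. Right hind paw volume measured by water displacement to a marked joint line; swelling degree (mL) is paw volume after carrageenan inflammation minus volume before.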

[2] = tested on: human retinal capillary endothelial cells (HRCECs); experiment: MTT proliferation inhibition on HRCECs; format: cell-based; conditions: 48 h; for A570 nm-A630 nm: mean±SD
How it was run: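 HRCECs seeded at 3.0×10^4 cells/mL, adhered overnight, then exposed to polypeptide for 48 h at 37 °C, 5% CO2. MTT added 4 h, formazan dissolved in DMSO, absorbance 570/630 nm; PIR (%) = 1 − treated/negative control, mean±SD of three independent runs.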

[3] = tested on: corneal neovascularization; experiment: Corneal neovascularization induced by alkali burn in BALB/c mice; format: in vivo; design: Inhibition rate (corneal neovascularization): concentration or dose not given beside the values; conditions: day 14 after alkali burn, vitreous injection once a day for 1 week
[4] = tested on: choroidal neovascularization; experiment: Choroidal neovascularization in rats (laser photocoagulation, FFA); format: in vivo; conditions: BN rats
How it was run: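 Male BN rats aged 6-8 weeks were given 8 krypton-laser spots around the optic disc (647.1 nm, 350 mW, 50 μm, 0.05 s). Once the model was confirmed, groups of 5 got daily intravitreal compound at 0.05 μM or saline for 1 week. FFA followed at 3, 7, 14 and 28 days after dosing.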

[5] = day 3 after administration, total light spot number was 297, 0.05 μM in the vitreous chamber once a day for 1 week
[6] = day 7 after administration, total light spot number was 186, 0.05 μM in the vitreous chamber once a day for 1 week
[7] = day 14 after administration, total light spot number was 137, 0.05 μM in the vitreous chamber once a day for 1 week
[8] = day 28 after administration, total light spot number was 69, 0.05 μM in the vitreous chamber once a day for 1 week

SMILES	A570 nm/A630 nm (splenic lymphocytes; polypeptide dose 0.05 μM)	Inhibition rate (%) (splenic lymphocytes; polypeptide dose 0.05 μM)	A570 nm/A630 nm (splenic lymphocytes; polypeptide dose 0.1 μM)	Inhibition rate (%) (splenic lymphocytes; polypeptide dose 0.1 μM)	A570 nm/A630 nm (splenic lymphocytes; polypeptide dose 0.2 μM)	Inhibition rate (%) (splenic lymphocytes; polypeptide dose 0.2 μM)	Clinical score (adjuvant arthritis)	Joint swelling degree (adjuvant arthritis) [mm]	Left and right paw swelling degree (adjuvant arthritis) [mm]	Swelling degree 1 h ([1]; 2.0 mg/kg once a day for 3 d) [mg]	Swelling degree 3 h ([1]; 2.0 mg/kg once a day for 3 d) [mg]	Swelling degree 5 h ([1]; 2.0 mg/kg once a day for 3 d) [mg]	Swelling degree 7 h ([1]; 2.0 mg/kg once a day for 3 d) [mg]	Swelling degree 1 h ([1]; 4.0 mg/kg once a day for 3 d) [mg]	Swelling degree 3 h ([1]; 4.0 mg/kg once a day for 3 d) [mg]	Swelling degree 5 h ([1]; 4.0 mg/kg once a day for 3 d) [mg]	Swelling degree 7 h ([1]; 4.0 mg/kg once a day for 3 d) [mg]	Inhibition rate (%) ([2]; dose 0.05 μM) [%*]	A570 nm-A630 nm ([2]; dose 0.05 μM)	Inhibition rate (%) ([2]; dose 0.1 μM) [%**]	also measured
C[C@H](NC(=O)CNC(=O)[C@H](CCCNC(=N)N)NC(=O)Cc1cccc(N2C(=O)C=CC2=O)c1)C(=O)N[C@@H](CC(=O)O)C(=O)N[C@@H](CCCNC(=N)N)C(=O)N[C@@H](C)C(=O)NCC(=O)NCC(=O)NCC(=O)NCC(=O)N[C@@H](CCCNC(=N)N)C(=O)NCC(=O)N[C@@H](CC(=O)O)C(=O)O [X25] (X75-RGADRAGGGGRGD-OH)	0.5838 ± 0.0861	13.56	0.5673 ± 0.0906	16.01	0.4576 ± 0.1221	32.25	5.72 ± 1.11	0.71 ± 0.16	3.76 ± 0.09	0.29 ± 0.17	0.38 ± 0.12	0.46 ± 0.18	0.34 ± 0.13	0.27 ± 0.15	0.36 ± 0.19	0.44 ± 0.18	0.33 ± 0.12	50.23	0.6578 ± 0.08044	54.21	A570 nm-A630 nm ([2]; dose 0.1 μM): 0.6052 ± 0.09358; Inhibition rate (%) ([2]; dose 0.2 μM): 63.33%*; A570 nm-A630 nm ([2]; dose 0.2 μM): 0.4847 ± 0.06551; Inhibition rate (corneal neovascularization) [3]: 52.90%; MVD (corneal microvessel density) [3]: 31.67 ± 6.856; CNV Incidence (%) [4, 5]: 51.85%; Leakage Light spot number [4, 5]: 154; CNV Incidence (%) [4, 6]: 47.31%; Leakage Light spot number [4, 6]: 88; CNV Incidence (%) [4, 7]: 43.07%; Leakage Light spot number [4, 7]: 59; CNV Incidence (%) [4, 8]: 44.93%; Leakage Light spot number [4, 8]: 31
C[C@H](NC(=O)CNC(=O)[C@H](CCCNC(=N)N)NC(=O)CCCCCCCc1cccc(N2C(=O)C=CC2=O)c1)C(=O)N[C@@H](CC(=O)O)C(=O)N[C@@H](CCCNC(=N)N)C(=O)N[C@@H](C)C(=O)NCC(=O)NCC(=O)NCC(=O)NCC(=O)N[C@@H](CCCNC(=N)N)C(=O)NCC(=O)N[C@@H](CC(=O)O)C(=O)O [X31] (X66-RGADRAGGGGRGD-OH)	0.6142 ± 0.0512	9.06	0.6134 ± 0.1148	9.18	0.5450 ± 0.0838	19.31	5.74 ± 1.12	0.84 ± 0.12	3.72 ± 0.98	0.23 ± 0.18	0.37 ± 0.12	0.38 ± 0.16	0.33 ± 0.11	0.22 ± 0.12	0.36 ± 0.16	0.38 ± 0.15	0.35 ± 0.14	41.92	0.7676 ± 0.04187	45.65	A570 nm-A630 nm ([2]; dose 0.1 μM): 0.7183 ± 0.03361; Inhibition rate (%) ([2]; dose 0.2 μM): 63.50%*; A570 nm-A630 nm ([2]; dose 0.2 μM): 0.4824 ± 0.04754; Inhibition rate (corneal neovascularization) [3]: 45.42%; MVD (corneal microvessel density) [3]: 36.70 ± 5.505; CNV Incidence (%) [4, 5]: 53.54%; Leakage Light spot number [4, 5]: 159; CNV Incidence (%) [4, 6]: 46.77%; Leakage Light spot number [4, 6]: 87; CNV Incidence (%) [4, 7]: 41.61%; Leakage Light spot number [4, 7]: 57; CNV Incidence (%) [4, 8]: 44.93%; Leakage Light spot number [4, 8]: 31
C[C@H](NC(=O)CNC(=O)[C@H](CCCNC(=N)N)NC(=O)CCCCCCCCc1ccccc1N1C(=O)C=CC1=O)C(=O)N[C@@H](CC(=O)O)C(=O)N[C@@H](CCCNC(=N)N)C(=O)N[C@@H](C)C(=O)NCC(=O)NCC(=O)NCC(=O)NCC(=O)N[C@@H](CCCNC(=N)N)C(=O)NCC(=O)N[C@@H](CC(=O)O)C(=O)O [X20] (X55-RGADRAGGGGRGD-OH)	0.5977 ± 0.1129	11.50	0.5419 ± 0.0423	19.77	0.4947 ± 0.1213	26.75	5.74 ± 1.11	0.8 ± 0.17	3.87 ± 0.95	0.25 ± 0.18	0.34 ± 0.13	0.36 ± 0.13	0.37 ± 0.12	0.24 ± 0.15	0.34 ± 0.12	0.35 ± 0.16	0.35 ± 0.12	44.28	0.7365 ± 0.05032	46.12	A570 nm-A630 nm ([2]; dose 0.1 μM): 0.7121 ± 0.0349; Inhibition rate (%) ([2]; dose 0.2 μM): 60.14%*; A570 nm-A630 nm ([2]; dose 0.2 μM): 0.5268 ± 0.01299; Inhibition rate (corneal neovascularization) [3]: 44.62%; MVD (corneal microvessel density) [3]: 37.24 ± 6.113; CNV Incidence (%) [4, 5]: 52.53%; Leakage Light spot number [4, 5]: 156; CNV Incidence (%) [4, 6]: 48.92%; Leakage Light spot number [4, 6]: 91; CNV Incidence (%) [4, 7]: 42.34%; Leakage Light spot number [4, 7]: 58; CNV Incidence (%) [4, 8]: 39.13%; Leakage Light spot number [4, 8]: 27
